In US9976141B2, “Compositions and methods for inhibiting gene expression of Hif2alpha” (Arrowhead Madison Inc., priority 2015, dated 2018):
Strand notation (5' to 3'): a small letter for the sugar, then the base; units joined by * are phosphorothioate-linked, units joined directly phosphodiester-linked; [ ] holds rarer units or linkages, { } end groups; capitals alone tell only the bases. d = 2'-deoxy (DNA); m = 2'-O-methyl; f = 2'-fluoro

Test system: human EPAS1 (Hif2α) cDNA in psiCHECK2 (Renilla luciferase/EPAS1 fusion mRNA) in Hep3B cells
Test: Efficacy screen of Hif2α RNAi triggers in vitro, dual-luciferase reporter assay (1 nM and 0.1 nM)
Format: cell-based
Settings: Hep3B cells co-transfected with EPAS1-psiCHECK2, Renilla luciferase normalized to firefly luciferase
Description: Candidate sequences were identified by in silico analysis and screened as chemically modified canonical siRNAs in vitro. For screening purposes, the human EPAS1 (Hif2α) cDNA sequence (accession #NM 001430) was synthesized and cloned (DNA 2.0, Menlo Park, Calif.) into a commercially-available reporter-based screening plasmid, psiCHECK2 (Promega, Madison, Wis.) which generated a Renilla luciferase/EPAS1 fusion mRNA. For RNAi trigger efficacy evaluation, Hep3B cells, a human hepatocellular carcinoma line, were plated at 10,000 cells per well in 96-well format. Each of the 187 EPAS1 RNAi triggers, in two subsets, was co-transfected at two concentrations, 1 nM and 0.1 nM, with 25 ng EPAS1-psiCHECK2 plasmid DNA per well and 0.2 μL LipoFectamine 2000 (Life Technologies) per well. Gene knockdown was determined by measuring Renilla luciferase levels normalized to the levels of constitutively-expressed firefly luciferase, also present on the psiCHECK-2 plasmid, using the Dual Luciferase Reporter Assay (Promega, Madison, Wis.) Table 5.

With “2231 (sense fGmAfGmAfCmUfGmUfAmUfGmGfUmCfAmGfCmUfAdT; antisense dTfAmGfCmUfGmAfCmCfAmUfAmCfAmGfUmCfUmCdT*dT; siRNA) [compound 2231]” the “Relative Rluc-Hif2α” value (0.1 nM RNAi trigger) was 0.544 ± 0.368 and the “Relative Rluc-Hif2α” value (1 nM RNAi trigger) was 0.491 ± 0.198.
With “2232 (sense fCmUfCmCfGmAfCmUfCmCfUmUfCmCfGmAfCmUfAdT; antisense dTfAmGfUmCfGmGfAmAfGmGfAmGfUmCfGmGfAmGdT*dT; siRNA) [compound 2232]” the “Relative Rluc-Hif2α” value (0.1 nM RNAi trigger) was 0.684 ± 0.061 and the “Relative Rluc-Hif2α” value (1 nM RNAi trigger) was 0.468 ± 0.032.
For “2233 (sense fUmCfCmGfAmCfUmCfCmCfAmGfCmAfUmUfCmGfAdT; antisense dTfCmGfAmAfUmGfCmUfGmGfGmAfGmUfCmGfGmAdT*dT; siRNA) [compound 2233]”, the “Relative Rluc-Hif2α” value (0.1 nM RNAi trigger) was 0.913 ± 0.019 and the “Relative Rluc-Hif2α” value (1 nM RNAi trigger) was 0.862 ± 0.125.
For “2234 (sense fCmGfAmCfUmCfCmCfAmGfCmAfUmUfCmGfAmGfAdT; antisense dTfCmUfCmGfAmAfUmGfCmUfGmGfGmAfGmUfCmGdT*dT; siRNA) [compound 2234]”, the “Relative Rluc-Hif2α” value (0.1 nM RNAi trigger) was 0.508 ± 0.148 and the “Relative Rluc-Hif2α” value (1 nM RNAi trigger) was 0.388 ± 0.046.
For “2235 (sense fGmAfCmUfCmCfCmAfGmCfAmUfUmCfGmAfGmCfAdT; antisense dTfGmCfUmCfGmAfAmUfGmCfUmGfGmGfAmGfUmCdT*dT; siRNA) [compound 2235]”, the “Relative Rluc-Hif2α” value (0.1 nM RNAi trigger) was 0.743 ± 0.129 and the “Relative Rluc-Hif2α” value (1 nM RNAi trigger) was 0.857 ± 0.090.
“2236 (sense fCmAfGmGfUmGfCmUfCmGfGmCfGmUfCmUfGmAfAdT; antisense dTfUmCfAmGfAmCfGmCfCmGfAmGfCmAfCmCfUmGdT*dT; siRNA) [compound 2236]” was tested, and the “Relative Rluc-Hif2α” value (0.1 nM RNAi trigger) was 0.693 ± 0.071 and the “Relative Rluc-Hif2α” value (1 nM RNAi trigger) was 0.761 ± 0.042.
For “2237 (sense fGmUfGmCfUmCfGmGfCmGfUmCfUmGfAmAfCmGfAdT; antisense dTfCmGfUmUfCmAfGmAfCmGfCmCfGmAfGmCfAmCdT*dT; siRNA) [compound 2237]”, the “Relative Rluc-Hif2α” value (0.1 nM RNAi trigger) was 0.746 ± 0.029 and the “Relative Rluc-Hif2α” value (1 nM RNAi trigger) was 0.978 ± 0.083.
With “2238 (sense fUmCfGmGfCmGfUmCfUmGfAmAfCmGfUmCfUmCfAdT; antisense dTfGmAfGmAfCmGfUmUfCmAfGmAfCmGfCmCfGmAdT*dT; siRNA) [compound 2238]” the “Relative Rluc-Hif2α” value (0.1 nM RNAi trigger) was 0.208 ± 0.023 and the “Relative Rluc-Hif2α” value (1 nM RNAi trigger) was 0.148 ± 0.024.
“2239 (sense fGmGfCmGfUmCfUmGfAmAfCmGfUmCfUmCfAmAfAdT; antisense dTfUmUfGmAfGmAfCmGfUmUfCmAfGmAfCmGfCmCdT*dT; siRNA) [compound 2239]” was tested, and the “Relative Rluc-Hif2α” value (0.1 nM RNAi trigger) was 0.225 ± 0.022 and the “Relative Rluc-Hif2α” value (1 nM RNAi trigger) was 0.157 ± 0.017.
In the case of “2240 (sense fCmGfUmCfUmGfAmAfCmGfUmCfUmCfAmAfAmGfAdT; antisense dTfCmUfUmUfGmAfGmAfCmGfUmUfCmAfGmAfCmGdT*dT; siRNA) [compound 2240]”, the “Relative Rluc-Hif2α” value (0.1 nM RNAi trigger) was 0.841 ± 0.048 and the “Relative Rluc-Hif2α” value (1 nM RNAi trigger) was 0.845 ± 0.052.
“2241 (sense fAmAfAmAfGmGfAmGfUmAfGmCfUmCfGmGfAmGfAdT; antisense dTfCmUfCmCfGmAfGmCfUmAfCmUfCmCfUmUfUmUdT*dT; siRNA) [compound 2241]” was tested, and the “Relative Rluc-Hif2α” value (0.1 nM RNAi trigger) was 0.385 ± 0.028 and the “Relative Rluc-Hif2α” value (1 nM RNAi trigger) was 0.270 ± 0.068.
For “2242 (sense fGmGfGmUfUmUfCmAfUmUfGmCfCmGfUmGfGmUfAdT; antisense dTfAmCfCmAfCmGfGmCfAmAfUmGfAmAfAmCfCmCdT*dT; siRNA) [compound 2242]”, the “Relative Rluc-Hif2α” value (0.1 nM RNAi trigger) was 0.411 ± 0.019 and the “Relative Rluc-Hif2α” value (1 nM RNAi trigger) was 0.222 ± 0.064.
For “2243 (sense fUmUfCmAfUmGfGmGfAmCfUmUfAmCfAmCfAmGfAdT; antisense dTfCmUfGmUfGmUfAmAfGmUfCmCfCmAfUmGfAmAdT*dT; siRNA) [compound 2243]”, the “Relative Rluc-Hif2α” value (0.1 nM RNAi trigger) was 0.688 ± 0.059 and the “Relative Rluc-Hif2α” value (1 nM RNAi trigger) was 0.694 ± 0.107.
“2244 (sense fGmGfGmAfCmUfUmAfCmAfCmAfGmGfUmGfGmAfAdT; antisense dTfUmCfCmAfCmCfUmGfUmGfUmAfAmGfUmCfCmCdT*dT; siRNA) [compound 2244]” was tested, and the “Relative Rluc-Hif2α” value (0.1 nM RNAi trigger) was 0.760 ± 0.050 and the “Relative Rluc-Hif2α” value (1 nM RNAi trigger) was 0.915 ± 0.115.
